Experimental data: US10869879B2, “Combinations to treat cancer” (EVOL SCIENCE LLC, priority 2017, dated 2020)

Experiments:
BxPC3M1 cells = assay: Colony formation assay; format: cell-based, human; details: vemurafenib 5 μM, glucose, and glycine depleted media, not with complete media
Description: (§1) For colony formation assays, 400 cells per well were seeded into 24-well plates on day 0. Cells were treated with DMSO or gemcitabine at various doses on day 1 for 24 hours. Gemcitabine was washed out on day 2, vemurafenib, dabrafenib, and methotrexate was added. On day 4, drugs added on day 2 was washed out. Cells were allowed to grow for a subsequent 7 days before being fixed (10% methanol+10% acetic acid) and stained with crystal violet (0.4% in 20% ethanol) for quantitation as previously described.
(§2) All proteomic trend plots were constructed using the Evol Science suite (ES). Volcano plotting serves to visually separate data points in two axes by both their expression ratio and their statistical significance. This enables a simple method of determining the most significant, differentially expressed proteins within a given comparison. For each protein, replicate values are gathered from each experiment to be compared to create two distributions of values. Student's T-Test of identical mean is used between the two independent samples of values to compare the distributions and generate a p-value of statistical significance. The −log 10 of the p-value is then taken to provide the Y coordinate, in graphical view. The X coordinate, Ratio, is given by the log 10 of the average of replicate ratio values for a given experiment. Combination Index calculations, Fa-CI plots, and isobolograms were constructed using the Compusyn software program using the Chou-Tulalay method. All plots representing colony formation assays were constructed using the Prism7 software (Graphpad.com). Two-way Anova tests were used to calculate p values.

SK-MEL-28VR1 cells [1] = assay: Colony formation assay; format: cell-based, human; details: for cell death with serine depletion: glucose, and glycine depleted media, not with complete media
Description: as §1, §2

SK-MEL-28 cells [2] = assay: Colony formation assay; format: cell-based; details: Homo sapiens, parental cell line, FIG. 4B, read-out: IC50 of vemurafenib, colony formation
Description: as §1
as §2, with “Combination Index calculations, Fa-CI plots, and isobolograms were constructed using the Compusyn software program using the Chou-Tulalay method. All plots representing colony formation assays were constructed using the Prism7 software (Graphpad.com). Two-way Anova tests were used to calculate p values.” left out

SK-MEL-28VR1 cells [3] = assay: Mass spectrometry, FAM129B protein abundance; format: cell-based, human; details: FIG. 5A, n=3
Description: (§3) FIG. 5A and FIG. 5B illustrate a characterization of SK-MEL-28VR1 cells. FIG. 5A: Unbiased Mass spectrometry: FAM129B protein abundance following differential treatments of SK-MEL-28 and SK-MEL-28VR1 cells (n=3). FIG. 5B: illustrates a characterization of SK-MEL-28VR1 cells. Western blot of PHGDH protein expression in differentially treated SK-MEL-28 and SK-MEL-28VR1 cells. Alpha tubulin used as loading control. 50 μg of protein loaded in each lane.
(§4) Samples were dried down and re-dissolved in 2.5% ACN/0.1% formic acid for liquid chromatography-tandem mass spectrometry (LC-MS/MS) analysis carried out on a Q-Exactive HF (Thermo Fisher Scientific) coupled with a U3000 RSLCnano HPLC device (Thermo Fisher Scientific). 5 μL of sample were loaded onto a C18 trap column (PepMap100; 300-μm i.d.×5 mm, 5-μm particle size, 100 Å; Thermo Fisher Scientific) at a flow rate of 10 μL min^−1. […] The runs were analyzed using Progenesis-QI for Proteomics (Nonlinear dynamics). […] The peptide and protein quantification used a synthetic control peptide for normalization across the samples. […]

SK-MEL-28 cells [4] = assay: Mass spectrometry, FAM129B protein abundance; format: cell-based; details: parental SK-MEL-28 cells
Description: as §3, §4

[5] = tested on: BxPC3M1, BxPC3, Panc1, and MiaPaca2; assay: Cell proliferation assay; format: cell-based; details: vemurafenib 10 μM, all 4 cell lines (WT BRAF)
Description: FIG. 9A, FIG. 9B, FIG. 9C, FIG. 9D, FIG. 9E, FIG. 9F, FIG. 9G and FIG. 9H illustrate vemurafenib induced cell proliferation and serine synthesis in pancreatic cancer cell lines. FIG. 9A: Cell proliferation assay of BxPC3 cells treated with vemurafenib (10 μM). 100000 cells plated on day 0. FIG. 9B: Cell proliferation assay of BxPC3M1 cells treated with vemurafenib (10 μM). 100000 cells plated on day 0. FIG. 9C: Cell proliferation assay of Panc1 cells treated with vemurafenib (10 μM). 100000 cells plated on day 0. FIG. 9D: Cell proliferation assay of MiaPaca2 cells treated with vemurafenib (10 μM). 100000 cells plated on day 0. FIG. 9E: Mass spectrometry: PHGDH protein expression in pancreatic cancer cells treated with DMSO or vemurafenib (10 μM) (n=3). FIG. 9F: Mass spectrometry: PSAT1 protein expression in pancreatic cancer cells treated with DMSO or vemurafenib (10 μM) (n=3). FIG. 9G: Mass spectrometry: PSPH protein expression in pancreatic cancer cells treated with DMSO or vemurafenib (10 μM) (n=3). FIG. 9H: Mass spectrometry: SARS protein expression in pancreatic cancer cells treated with DMSO or vemurafenib (10 μM) (n=3).
Next, we tested the effect of vemurafenib treatment on pancreatic cancer cell proliferation. All 4 of the cell lines (BxPC3M1, BxPC3, Panc1, and MiaPaca2) tested express WT BRAF. […]

[6] = tested on: pancreatic cancer cells (BxPC3M1, BxPC3, Panc1, MiaPaca2); format: cell-based; details: vemurafenib 10 μM versus DMSO, all 4 cell lines, n=3
[7] = tested on: SK-MEL-28VR1 vs SK-MEL-28 cells; details: vemurafenib treatment, SK-MEL-28VR1 compared to parental SK-MEL-28

CCCS(=O)(=O)Nc1ccc(F)c(C(=O)c2c[nH]c3ncc(-c4ccc(Cl)cc4)cc23)c1F [vemurafenib, Vemurafenib]
cell death with serine depleted media (BxPC3M1 cells): > 50% | IC50 (SK-MEL-28VR1 cells [1]; Homo sapiens, data not shown, read-out: IC50 of vemurafenib, colony formation): ~30 µM | cell death with serine depletion (SK-MEL-28VR1 cells [1]; vemurafenib 2.5 μM): > 50% | cell death with serine depletion (SK-MEL-28VR1 cells [1]; vemurafenib 5 μM): > 50% | IC50 (SK-MEL-28 cells [2]): ~1 µM | Cytoplasmic FAM129B abundance increase, vemurafenib compared to vehicle treatment (SK-MEL-28VR1 cells [3]): ~6 fold | FAM129B abundance in response to vemurafenib treatments (SK-MEL-28 cells [4]): decreased | cell proliferation under vemurafenib treatment [5]: increased proliferation | PHGDH, PSAT1, PSPH, and SARS protein abundance [6]: increased | Fold differential, ASNS ([7]; protein ASNS): 8 fold | Fold differential, CYP51A1 ([7]; protein CYP51A1): 8 fold | Fold differential, DUS2 ([7]; protein DUS2): 7 fold | Fold differential, FAM129B ([7]; protein FAM129B): 9 fold | Fold differential, KRT19 ([7]; protein KRT19): 5 fold | Fold differential, LARS2 ([7]; protein LARS2): 6 fold | Fold differential, MPHOSPH6 ([7]; protein MPHOSPH6): 9 fold | Fold differential, MRPL13 ([7]; protein MRPL13): 2 fold | Fold differential, PDLIM7 ([7]; protein PDLIM7): 9 fold | Fold differential, PHGDH ([7]; protein PHGDH): 2 fold | Fold differential, PPP1R7 ([7]; protein PPP1R7): 8 fold | Fold differential, PSAT1 ([7]; protein PSAT1): 8 fold | Fold differential, PSPH ([7]; protein PSPH): 5 fold | Fold differential, RUVBL1 ([7]; protein RUVBL1): 3 fold | Fold differential, S100A11 ([7]; protein S100A11): 8 fold | Fold differential, SARS2 ([7]; protein SARS2): 4 fold | Fold differential, SARS ([7]; protein SARS): 6 fold | Fold differential, SBDS ([7]; protein SBDS): 10 fold | Fold differential, SPATA20 ([7]; protein SPATA20): 12 fold | Fold differential, TXNDC17 ([7]; protein TXNDC17): 2 fold
